Reference: patent US20240376073A1 (Hoffmann-La Roche Inc., priority 2021, published 2024)
Structures can show the parent of a compound that is named as a salt.

test system: Acinetobacter baumannii ATCC17961; assay: Antimicrobial susceptibility testing: 90% growth inhibitory concentration (IC90) determination; format: cell-based; settings: Acinetobacter baumannii ATCC17961; Iso-Sensitest broth; growth by OD 600 nm over 16 h; 35±2° C.; read-out: ATCC 17961 IC90
Description: The in vitro antimicrobial activity of the compounds was determined according to the following procedure:
The assay used a 10-points Iso-Sensitest broth medium to measure quantitatively the in vitro activity of the compounds against Acinetobacter baumannii ATCC17961.
Stock compounds in DMSO were serially twofold diluted (e.g. range from 50 to 0.097 μM final concentration) in 384 wells microtiter plates and inoculated with 49 μl the bacterial suspension in Iso-Sensitest medium to have a final cell concentration of ˜5×10^(5) CFU/ml in a final volume/well of 50 ul/well. Microtiter plates were incubated at 35±2° C.
Bacterial cell growth was determined with the measurement of optical density at λ=600 nm each 20 minutes over a time course of 16 h. Growth inhibition was calculated during the logarithmic growth of the bacterial cells with determination of the concentration inhibiting 50% (IC50) and 90% (IC90) of the growth.
Table 1 provides the […] growth inhibitory concentrations (IC90) in micromoles per liter of the compounds of present invention obtained against the strain Acinetobacter baumannii ATCC17961.

| SMILES | IC90 |
| --- | --- |
| COc1ccc(-c2cnc(C(=O)Nc3ccc(C(=O)NCCCCC[N+](C)(C)C)c(Cl)c3)n2C)c(F)c1F [Example A2, 5-[[2-Chloro-4-[[5-(2,3-difluoro-4-methoxy-phenyl)-1-methyl-imidazole-2-carbonyl]amino]benzoyl]amino]pentyl-trimethyl-ammonium;formate] | 340 nM |
| COc1ccc(-c2cnc(C(=O)Nc3ccc(C(=O)NCCCCC[N+](C)(C)CC(N)=O)c(Cl)c3)n2C)c(F)c1F [Example A3, (2-amino-2-oxo-ethyl)-[5-[[2-chloro-4-[[5-(2,3-difluoro-4-methoxy-phenyl)-1-methyl-imidazole-2-carbonyl]amino]benzoyl]amino]pentyl]-dimethyl-ammonium; formate] | 160 nM |
| CCc1cc(NC(=O)c2ncc(-c3ccc(OC)c(F)c3F)n2C)ccc1C(=O)NCCOCC[N+](C)(C)C [Example A5, 2-(2-(4-(5-(2,3-difluoro-4-methoxyphenyl)-1-methyl-1H-imidazole-2-carboxamido)-2-ethylbenzamido)ethoxy)-N,N,N-trimethylethan-1-aminium iodide] | 460 nM |
| COc1ccc(-c2cnc(C(=O)Nc3ccc(C(=O)N4CCN(CC[N+](C)(C)C)CC4)c(Cl)c3)n2C)c(F)c1F [Example A9, 2-[4-[2-chloro-4-[[5-(2,3-difluoro-4-methoxy-phenyl)-1-methyl-imidazole-2-carbonyl]amino]benzoyl]piperazin-1-yl]ethyl-trimethyl-ammonium; iodide] | 130 nM |
| COc1ccc(-c2cnc(C(=O)Nc3ccc(C(=O)N[C@H]4C[C@@H](NCC[N+](C)(C)C)C4)c(Cl)c3)n2C)c(F)c1F [Example A11, 2-[[3-[[2-chloro-4-[[5-(2,3-difluoro-4-methoxy-phenyl)-1-methyl-imidazole-2-carbonyl]amino]benzoyl]amino]cyclobutyl]amino]ethyl-trimethyl-ammonium; formic acid; formate] | 570 nM |
| Cn1c(-c2ccc(OCC#N)c(F)c2F)cnc1C(=O)Nc1ccc(C(=O)NCCCNC(=O)C[N+](C)(C)C)c(Cl)c1 [Example A12, [2-[3-[[2-chloro-4-[[5-[4-(cyanomethoxy)-2,3-difluoro-phenyl]-1-methyl-imidazole-2-carbonyl]amino]benzoyl]amino]propylamino]-2-oxo-ethyl]-trimethyl-ammonium formate] | 350 nM |
| Cn1c(-c2ccc(OCC#N)c(F)c2F)cnc1C(=O)Nc1ccc(C(=O)NCCOCC[N+](C)(C)CC(N)=O)c(Cl)c1 [Example A13, (2-amino-2-oxo-ethyl)-[2-[2-[[2-chloro-4-[[5-[4-(cyanomethoxy)-2,3-difluoro-phenyl]-1-methyl-imidazole-2-carbonyl]amino]benzoyl]amino]ethoxy]ethyl]-dimethyl-ammonium formate] | 640 nM |

The next lines start with the values.

| IC90 | SMILES |
| --- | --- |
| 31 nM | Cn1c(-c2ccc(OC(F)F)c(F)c2F)cnc1C(=O)Nc1ccc(C(=O)N2CCN(C(=O)[C@H]3[C@@H]4C[N+](C)(CC(N)=O)C[C@@H]43)CC2)c(Cl)c1 (mixture of isomers) [Example C4, N-[4-[4-[(1R,5S)-3-(2-amino-2-oxo-ethyl)-3-methyl-3-azoniabi-cyclo[3.1.0]-hexane-6-carbonyl]-piperazine-1-carbonyl]-3-chloro-phenyl]-5-[4-(difluoro-methoxy)-2,3-difluoro-phen-yl]-1-methyl-imidazole-2-carboxamide; formate] |
| 540 nM | Cn1c(-c2ccc(OCF)c(F)c2F)cnc1C(=O)Nc1ccc(C(=O)N2CCN(C(=O)[C@H]3[C@@H]4C[N+](C)(CC(=O)O)C[C@@H]43)CC2)c(Cl)c1 (mixture of isomers) [Example C30, 2-[(1R,5S)-6-[4-[2-chloro-4-[[5-[2,3-difluoro-4-(fluoromethoxy)phenyl]-1-meth-yl-imidazole-2-carbonyl]amino]-benzoyl]piper-azine-1-carbon-yl]-3-methyl-3-azoniabicyclo-[3.1.0]hexan-3-yl]acetic acid; 2,2,2-trifluoro-acetate] |
| 79 nM | COc1ccc(-c2cnc(C(=O)Nc3ccc(C(=O)N4CCC(CC[N+](C)(C)C)CC4)c(Cl)c3)n2C)c(F)c1F [Example A1, 2-[1-[2-Chloro-4-[[5-(2,3-difluoro-4-methoxy-phenyl)-1-methyl-imidazole-2-carbonyl]amino]benzoyl]-4-piperidyl]ethyl-trimethyl-ammonium;formate] |
| 210 nM | COc1ccc(-c2cnc(C(=O)Nc3ccc(C(=O)N4CCN(CC[N+](C)(C)CC(N)=O)CC4)c(Cl)c3)n2C)c(F)c1F [Example A4, (2-amino-2-oxo-ethyl)-[2-[4-[2-chloro-4-[[5-(2,3-difluoro-4-methoxy-phenyl)-1-methyl-imidazole-2-carbonyl]amino]benzoyl]piperazin-1-yl]ethyl]-dimethyl-ammonium; formate] |
| 1500 nM | CCc1cc(NC(=O)c2ncc(-c3ccc(OC)c(F)c3F)n2C)ccc1C(=O)N1CCN(CCC[N+](C)(C)C)CC1 [Example A6, 3-(4-(4-(5-(2,3-difluoro-4-methoxyphenyl)-1-methyl-1H-imidazole-2-carboxamido)-2-ethylbenzoyl)piperazin-1-yl)-N,N,N-trimethylpropan-1-aminium iodide] |
| 310 nM | Cc1cc(NC(=O)c2ncc(-c3ccc(OCC#N)c(F)c3F)n2C)ccc1C(=O)N1CCN(C(=O)C[N+](C)(C)C)CC1 [Example A8, [2-[4-[4-[[5-[4-(cyanomethoxy)-2,3-difluoro-phenyl]-1-methyl-imidazole-2-carbonyl]amino]-2-methyl-benzoyl]piperazin-1-yl]-2-oxo-ethyl]-trimethyl-ammonium; iodide] |
| 84 nM | COc1ccc(-c2cnc(C(=O)Nc3ccc(C(=O)N[C@H]4C[C@@H](NC(=O)C[N+](C)(C)C)C4)c(Cl)c3)n2C)c(F)c1F [Example A10, [2-[[3-[[2-Chloro-4-[[5-(2,3-difluoro-4-methoxy-phenyl)-1-methyl-imidazole-2-carbonyl]amino]benzoyl]amino]cyclobutyl]amino]-2-oxo-ethyl]-trimethyl-ammonium formate] |
| 600 nM | Cn1c(-c2ccc(OCC#N)c(F)c2F)cnc1C(=O)Nc1ccc(C(=O)NCCNC(=O)C[N+](C)(C)C)c(Cl)c1 [Example A14, [2-[2-[2-chloro-4-[[5-[4-(cyanomethoxy)-2,3-difluoro-phenyl]-1-methyl-imidazole-2-carbonyl]amino]benzoyl]amino]ethylamino]-2-oxo-ethyl]-trimethyl-ammonium formate] |
| 770 nM | Cn1c(-c2ccc(OCC#N)c(F)c2F)cnc1C(=O)Nc1ccc(C(=O)NCCOCC[N+](C)(C)C)c(Cl)c1 [Example A15, 2-[2-[[2-chloro-4-[[5-[4-(cyanomethoxy)-2,3-difluoro-phenyl]-1-methyl-imidazole-2-carbonyl]amino]benzoyl]amino]ethoxy]ethyl-trimethyl-ammonium formate] |
| 88 nM | Cn1c(-c2ccc(OCC#N)c(F)c2F)cnc1C(=O)Nc1ccc(C(=O)N[C@H]2C[C@@H](NC(=O)C[N+](C)(C)C)C2)c(Cl)c1 [Example A16, [2-[[3-[2-chloro-4-[[5-[4-(cyanomethoxy)-2,3-difluoro-phenyl]-1-methyl-imidazole-2-carbonyl]amino]benzoyl]amino]cyclobutyl]amino]-2-oxo-ethyl]-trimethyl-ammonium formate] |
| 340 nM | Cn1c(-c2ccc(OCC#N)c(F)c2F)cnc1C(=O)Nc1ccc(C(=O)N[C@H]2C[C@@H](NCC[N+](C)(C)C)C2)c(Cl)c1 [Example A17, 2-[[3-[[2-chloro-4-[[5-[4-(cyanomethoxy)-2,3-difluoro-phenyl]-1-methyl-imidazole-2-carbonyl]amino]benzoyl]amino]cyclobutyl]amino]ethyl-trimethyl-ammonium formate] |
| 240 nM | Cc1cc(NC(=O)c2ncc(-c3ccc(OCC#N)c(F)c3F)n2C)ccc1C(=O)N[C@H]1C[C@@H](NC(=O)C[N+](C)(C)C)C1 [Example A18, [2-[[3-[[4-[5-[4-(cyanomethoxy)-2,3-difluoro-phenyl]-1-methyl-imidazole-2-carbonyl]amino]-2-methyl-benzoyl]amino]cyclobutyl]amino]-2-oxo-ethyl]-trimethyl-ammonium formate] |

same assay, conditions: Acinetobacter baumannii, ATCC17961, 16 h, read-out: ATCC 17961 IC90, Acinetobacter baumannii ATCC17961; Iso-Sensitest broth; growth by OD 600 nm over 16 h; 35±2° C.

| SMILES | IC90 |
| --- | --- |
| Cn1c(-c2ccc(OCC#N)c(F)c2F)cnc1C(=O)Nc1ccc(C(=O)N2CCN(C(=O)C[N+](C)(C)C)CC2)c(Cl)c1 [Example A7, [2-[4-[2-chloro-4-[[5-[4-(cyanomethoxy)-2,3-difluoro-phenyl]-1-methyl-imidazole-2-carbonyl]amino]benzoyl]piperazin-1-yl]-2-oxo-ethyl]-trimethyl-ammonium; formate; iodide] | 93 nM |

same assay, conditions: read-out: ATCC 17961 IC90; Acinetobacter baumannii ATCC17961; Iso-Sensitest broth; growth by OD 600 nm over 16 h; 35±2° C.; formate

| SMILES | IC90 |
| --- | --- |
| COc1ccc(-c2cnc(C(=O)Nc3ccc(C(=O)N4CCN(C(=O)C5C[C@H](O)C[N+]5(C)C)CC4)c(Cl)c3)n2C)c(F)c1F (stereo in doubt) [Example B37, N-[3-chloro-4-[4-[(2R,4S)-4-hydroxy-1,1-dimethyl-pyrrolidin-1-ium-2-carbonyl]piperazine-1-carbonyl]phenyl]-5-(2,3-difluoro-4-methoxy-phenyl)-1-methyl-imidazole-2-carboxamide; formate] | 190 nM |
